Data published in patent US20070149593A1 (Alcon, Inc., priority 2005, published 2007).

Test system: FGFR
Test: Kinase inhibition in cell-free enzymatic assay, FGFR
Assay type: biochemical
Settings: 1 mM ATP

## Cc1ccc(F)c(NC(=O)Nc2ccc(-c3cccc4[nH]nc(N)c34)cc2)c1 [RTKi, N-[4-(3-amino-1H-indazol-4-yl)phenyl]-N′-(2-fluoro-5-methylphenyl)urea]
  IC50: > 12.5 µM
